Reference: patent EP0325048A1, “Imidazo- and pyrimido-quinoline, naphthyridine and pyridopyrazine compounds” (SCHERING CORPORATION, priority 1987, dated 1989)
Like-named read-outs stand apart in the source and are kept apart here.

What was measured:
[1] = test system: reverse passive Arthus reaction in the pleural cavity of rats; experiment: reverse passive Arthus reaction in the pleural cavity of rats (pleurisy); type: in vivo, Male Lewis rats; conditions: Rattus norvegicus, po; for inhibition in vivo at 3.125 mg/kg: 3.125 mg/kg p.o. (Table 4); for inhibition in vivo at 6.25 mg/kg: 6.25 mg/kg p.o. (Table 4); for inhibition in vivo at 12.5 mg/kg: 12.5 mg/kg p.o. (Table 4); for inhibition in vivo at 50 mg/kg: 50 mg/kg p.o. (Table 4); for inhibition in vivo at 1 mg/kg: 1 mg/kg p.o.; for inhibition in vivo at 3 mg/kg: 3 mg/kg p.o.; for inhibition in vivo at 9 mg/kg: 9 mg/kg p.o.
Description: Another procedure for testing for acute antiinflammatory activity measures the reverse passive Arthus reaction in the pleural cavity of rats.
Male Lewis rats weighing 180-220 grams were obtained from Charles River Breeding Laboratories, Wilmington, MA and permitted food and water ad libitum. Rooms housing the animals were temperature controlled with a 12 hour light and dark cycle.
Groups of five rats were dosed with drug 30 minutes prior to sensitization with BSA (1 mg/0.2 ml saline). Thirty minutes later the animals were challenged with the IgG fraction of a rabbit anti-bovine serum albumi antibodies (0.1 mg antibody protein per 0.2 ml saline Cooper Biomedical, Malvern, PA) in the pleural cavity. Four hours after challenge, the rats were sacrificed and the exudate harvested from the pleural cavity. The volume of the exudate was measured and the total number of cells determined with a Coulter Counter. [formula]
The results measured as percent inhibition of the infiltration of polymorphonuclear leucocytes (PMNs) and of edena are set forth below in Table 3.

[2] = test system: anaphylactic bronchospasm in sensitized guinea pigs; experiment: anaphylactic bronchospasm in sensitized guinea pigs (modified Konzett-Rossler), antigen-induced SRS-A mediated bronchoconstriction; type: in vivo; conditions: for % Inhibition of Broncho-constriction: 2 hours before antigen challenge, inhibition of increase in intratracheal pressure; for % Inhibition of Bronchoconstriction: comparison compound (Table 2)
Description: The anti-allergy method of this invention is identified by tests which measure a compound's inhibition of anaphylactic bronchospasm in sensitized guinea pigs having antigen-induced SRS-A mediated bronchoconstriction. Allergic bronchospasm was measured in actively sensitized guinea pigs by a modification of the procedure of Konzett and Rossler, Arch. Exptl. Pathol. […] Male Hartley guinea pigs were sensitized with 5 mg ovalbumin injected ip and 5 mg injected sc in 1 ml saline on day 1 and 5mg ovalbumin injected ip on day 4. The sensitized animals were used 3-4 weeks later. To measure anaphylactic bronchospasm, sensitized guinea pigs were fasted overnight and the following morning were anesthetized with 0.9 ml/kg ip of dialurethane. The trachea and jugular vein were cannulated and the animals were ventilated by a Harvard rodent respirator. A side arm to the tracheal cannula was connected to a Harvard pressure transducer to obtain a continuous measure of intratracheal pressure. An increase in intratracheal pressure was taken as a measure of bronchoconstriction. Each guinea pig was injected iv with 1mg/kg propranolol, 5 mg/kg indomethacin and 2 mg/kg mepyramine given together in a volume of 1 ml/kg. Fifteen minutes later, the animals were challenged with antigen (0.5 per cent ovalbumin) delivered as an aerosol generated from a DeVilbiss Model 65 ultrasonic nebulizer and delivered through the tracheal cannula for 30 seconds. Bronchoconstriction was measured as the peak increase in intratracheal pressure occurring within 15 minutes after antigen challenge.

[3] = test system: Reversed Passive Arthus Reaction (RPAR)-PAW; experiment: Reversed Passive Arthus Reaction (RPAR)-PAW technique; type: in vivo, male Lewis rats; conditions: 25 mg/kg (p.o.); paw volume at 2 hours post-challenge
Description: The compounds of this invention are also useful for the treatment of inflammation; thus, they are useful for the treatment of: arthritis, bursitis, tendonitis, gout and other inflammatory conditions. […] The potency of the compounds is determined using indomethacin as the standard. On the basis of the test results, an oral dosage range of about 5 milligrams per kilogram of body weight per day to about 50 milligrams per kilogram of body weight per day in divided doses taken at about 4 hour intervals is recommended, again with any of the conventional modes of administration for treatment of inflammation being suitable.
Male Lewis inbred albino rats weighing 180-220 grams obtained from Charles River Breeding Laboratories are used in these experiments. The rats are housed 3 animals/cage and food and water are allowed ad libitum. The animals are numbered 1-3 in each cage and color marked for identification purposes.
All reagents and drugs are prepared just prior to the study. […]
Groups of animals (6/group) are dosed with drug in MC by gavage one hour prior to sensitization with BSA. […] The volume of mercury displaced is converted to weight and recorded. […] Paw volumes are also recorded with a plethysmograph during the development of the inflammation at 2 hours post-challenge.

[4] = 4 h, read-out: Pleurisy (% Inhibition) Edema
[5] = 4 h, read-out: Pleurisy (% Inhibition) PMNs
[6] = 25 mg/kg p.o., exudate 4 hours after challenge, read-out: Pleurisy (% Inhibition) Edema
[7] = 25 mg/kg p.o., exudate 4 hours after challenge, read-out: Pleurisy (% Inhibition) PMNs

C[C@]12C=CC(=O)C=C1CC[C@@H]1[C@@H]2C(=O)C[C@@]2(C)[C@H]1CC[C@]2(O)C(=O)CO [Prednisone, prednisone, reference compound]
inhibition in vivo at 3.125 mg/kg [1, 4]: 2% | inhibition in vivo at 3.125 mg/kg [1, 5]: 7% | inhibition in vivo at 6.25 mg/kg [1, 4]: 17% | inhibition in vivo at 6.25 mg/kg [1, 5]: 16% | inhibition in vivo at 12.5 mg/kg [1, 4]: 27% | inhibition in vivo at 12.5 mg/kg [1, 5]: 20% | inhibition in vivo at 25 mg/kg ([1]; 4 h, 25 mg/kg p.o. (Table 4), read-out: Pleurisy (% Inhibition) Edema): 44% | inhibition in vivo at 25 mg/kg ([1]; 4 h, 25 mg/kg p.o. (Table 4), read-out: Pleurisy (% Inhibition) PMNs): 25% | inhibition in vivo at 50 mg/kg [1, 4]: 58% | inhibition in vivo at 50 mg/kg [1, 5]: 42%

COc1ccc(-c2c3n(c(=O)c4cccnc24)CCN3)cc1 [R^3=H, R^4=4-methoxy-phenyl, n=2, 2,3-dihydro-10-(4-methoxyphenyl)imidazo-[1,2-g][1,6]naphthyridin-5(1H)-one]
% Inhibition of Broncho-constriction ([2]; 10 mg/kg p.o.): 8% | inhibition in vivo at 25 mg/kg [1, 6]: 42% | inhibition in vivo at 25 mg/kg [1, 7]: 49%

O=c1c2cccnc2c(-c2cccc3ccccc23)c2n1CCN2 [R^3=H, R^4=naphthyl, n=2, 2,3-dihydro-10-(1-naphthalenyl)imidazo-[1,2-g][1,6]naphthyridin-5(1H)-one]
inhibition in vivo at 25 mg/kg [1, 6]: 28% | inhibition in vivo at 25 mg/kg [1, 7]: 50%

O=c1c2cccnc2c(-c2cccc(Cl)c2)c2n1CCCN2 [R^3=H, R^4=3-chloro phenyl, n=3, 11-(3-chlorophenyl)-1,2,3,4-tetrahydro-6H-pyrimido[1,2-g][1,6]naphthyridin-6-one]
% Inhibition of Broncho-constriction ([2]; 5 mg/kg p.o.): 54% | inhibition in vivo at 25 mg/kg [1, 6]: 76% | inhibition in vivo at 25 mg/kg [1, 7]: 82%

O=c1c2cccnc2c(-c2cccc(Cl)c2)c2n1CCN2 [R^3=H, R^4=3-chloro-phenyl, n=2, 10-(3-chlorophenyl)-2,3-dihydroimidazo[1,2-g][1,6]naphthyridin-5(1H)-one]
% Inhibition of Broncho-constriction ([2]; 5 mg/kg p.o.): 43%

O=c1c2cccnc2c(-c2ccc(Cl)cc2)c2n1CCN2 [R^3=H, R^4=4-chloro-phenyl, n=2, 10-(4-chlorophenyl)-2,3-dihydro-imidazo[1,2-g][1,6]naphthyridin-5(1H)-one]
% Inhibition of Broncho-constriction ([2]; 5 mg/kg p.o.): 11% | inhibition in vivo at 25 mg/kg [1, 6]: 92% | inhibition in vivo at 25 mg/kg [1, 7]: 95%

Cc1ccc(-c2c3n(c(=O)c4cccnc24)CCN3)cc1 [R^3=H, R^4=4-methyl phenyl, n=2, 2,3-dihydro-10(4-methylphenyl)imidazo-[1,2-g][1,6]naphthyridin-5(1H)-one]
% Inhibition of Broncho-constriction ([2]; 5 mg/kg p.o.): 1% | inhibition [3]: 42% | inhibition in vivo at 25 mg/kg [1, 6]: 42% | inhibition in vivo at 25 mg/kg [1, 7]: 53%

CC(C)(C)c1ccc(C(O)CCCN2CCC(C(O)(c3ccccc3)c3ccccc3)CC2)cc1 (stereo not shown) [terfenadine, reference compound]
% Inhibition of Bronchoconstriction ([2]; 30 mg/kg p.o.): 5%

CN1CCn2c1c(-c1ccccc1)c1ncccc1c2=O [R^3=CH3, R^4=phenyl, n=2, 2,3-dihydro-1-methyl-10-phenylimidazo[1,2-g][1,6]naphthyridin-5(1H)-one]
inhibition in vivo at 25 mg/kg [1, 6]: 56% | inhibition in vivo at 25 mg/kg [1, 7]: 69%

O=c1c2cccnc2c(-c2ccccc2)c2n1CCN2 [R^3=H, R^4=phenyl, n=2, 2,3-dihydro-10-phenylimidazo[1,2-g][1,6]-naphthyridin-5(1H)-one]
% Inhibition of Broncho-constriction ([2]; 10 mg/kg p.o.): 16% | inhibition [3]: 92% | inhibition in vivo at 1 mg/kg [1, 4]: 9% | inhibition in vivo at 1 mg/kg [1, 5]: 3% | inhibition in vivo at 3 mg/kg [1, 4]: 25% | inhibition in vivo at 3 mg/kg [1, 5]: 28% | inhibition in vivo at 9 mg/kg [1, 4]: 34% | inhibition in vivo at 9 mg/kg [1, 5]: 54% | inhibition in vivo at 25 mg/kg [1, 6]: 55% | inhibition in vivo at 25 mg/kg [1, 7]: 90%

COc1cccc(-c2c3n(c(=O)c4cccnc24)CCN3)c1 [R^3=H, R^4=3-methoxy-phenyl, n=2, 2,3-dihydro-10-(3-methoxyphenyl)imidazo-[1,2-g][1,6]naphthyridin-5(1H)-one]
% Inhibition of Broncho-constriction ([2]; 5 mg/kg p.o.): 61% | inhibition in vivo at 25 mg/kg [1, 6]: 69% | inhibition in vivo at 25 mg/kg [1, 7]: 79%

C[C@@H]1C[C@H]2[C@@H]3CCC4=CC(=O)C=C[C@]4(C)[C@@]3(F)[C@@H](O)C[C@]2(C)[C@@]1(O)C(=O)CO [dexamethasone, reference compound]
% Inhibition of Bronchoconstriction ([2]; 3 mg/kg p.o.): 38% | % Inhibition of Bronchoconstriction ([2]; 10 mg/kg p.o.): 46%

Cn1c(=O)c2[nH]cnc2n(C)c1=O [aminophylline, reference compound]
% Inhibition of Bronchoconstriction ([2]; 18 mg/kg p.o.): 21% | % Inhibition of Bronchoconstriction ([2]; 53 mg/kg p.o.): 58%
